Experiments:
[1] = target: T1, wild-type human receptor NK1 (Homo sapiens, UniProt P25103); test: Calcium response caused by substance P in HEK 293 cells expressing NK1 receptor; type: cell-based; conditions: 805 20 μM; substance P 0.1 or 10 nM
T1 construct: expressed in transfected cells; host or cells: HEK 293
Procedure: In FIGS. 12A and 12B, a suspension (1×10^6 cells/ml) of HEK 293 cells expressing the wild-type human NK1 receptor, and charged with indo-1 (3 μM) is stimulated by 0.1 nM (FIG. 12A) or 10 nM (FIG. 12B) of substance P(SP) in the presence (black circles) and in the absence (white circles) of 805 molecules (20 μM).
(§1) The cells are put into suspension at a rate of 1,000,000 cells/ml in Hepes buffer (op. cit.) and arranged in a spectrofluorimeter cuvette. The excitation wavelength is fixed at 338 nm and the emission is recorded at 400 nm. The responses traced are the signals recorded at 400 nm.

receptor EGFP-NK2R [2] = target: T2, receptor EGFP-NK2R (Homo sapiens, UniProt P21452); test: cAMP production caused by NKA in HEK 293 cells expressing EGFP-NK2R; type: cell-based
T2 sequence (P21452 1-398): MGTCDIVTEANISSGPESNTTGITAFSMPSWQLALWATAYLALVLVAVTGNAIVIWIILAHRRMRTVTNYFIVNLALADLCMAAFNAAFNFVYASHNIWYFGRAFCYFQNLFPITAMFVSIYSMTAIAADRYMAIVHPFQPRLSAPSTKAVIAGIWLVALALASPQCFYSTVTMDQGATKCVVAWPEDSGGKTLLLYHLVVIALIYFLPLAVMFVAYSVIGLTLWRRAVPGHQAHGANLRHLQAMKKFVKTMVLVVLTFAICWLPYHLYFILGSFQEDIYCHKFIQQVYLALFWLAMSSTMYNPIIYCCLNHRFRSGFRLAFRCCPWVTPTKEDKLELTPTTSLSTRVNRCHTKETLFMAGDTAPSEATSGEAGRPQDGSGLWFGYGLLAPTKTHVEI
Procedure: 30 mm 6-well cell-culture dishes are treated with collagen then seeded with 50,000 cells expressing the receptor EGFP-NK2R. […] The quantity of cAMP produced (expressed in pmoles/well) is determined according to a radioimmunological process described in Gicquiaux et al. (2002).

receptor EGFP-NK2R [3] = target: T2, receptor EGFP-NK2R; test: Reversion of the binding of NKA-Bo to EGFP-NK2R by fluorescence energy transfer; conditions: read-out: % bond reversion (50 μM)
Source text: (§2) The amplitude of each relaxation is then given by the adjustment of the experimental traces.

[4] = target: T3, wild-type human receptor NK2 (Homo sapiens, UniProt P21452); test: Calcium response caused by neurokinin A in HEK 293 cells expressing NK2 receptor; type: cell-based; conditions: 805 20 μM; neurokinin A 10 or 100 nM
T3 construct: expressed in transfected cells; host or cells: HEK 293
T3 sequence (P21452 1-398): T2 sequence (P21452 1-398)
Procedure: as §1

receptor EGFP-NK2R [5] = target: T2, receptor EGFP-NK2R; test: Calcium response caused by NKA/NKA-Bo in HEK 293 cells expressing EGFP-NK2R (indo-1); type: cell-based; conditions: for time necessary to return to 50% of the maximum calcium response: 5 nM NKA, 91 seconds in the absence of 805
Procedure: The calcium responses caused by the agonist NKA-Bo on cells expressing the receptor EGFP-NK2R are recorded after charging the cells with the calcium-sensitive fluorescent probe: indo-1, according to the protocol described in Vollmer et al. (1999). The cells are put into suspension at a rate of 500,000 cells/ml in Hepes buffer and arranged in a spectrofluorimeter cuvette. The excitation wavelength is fixed at 338 nm and the emission is recorded at 400 and 470 nm. The responses traced are the ratios of the signals 400/470.

receptor EGFP-NK2R [6] = target: T4, receptor EGFP-NK2R (UniProt P16610); test: Dissociation of NKA4-10 TR7 from EGFP-NK2R by fluorescence energy transfer; type: binding; design: % al (max): maximum value observed for the increase in amplitude of the rapid dissociation rate; ns = n; other: 20 nM of NK; % al (at 10 μM); other: compou; fused on or other part: EGFP fused to the receptor as FRET donor
T4 sequence (P16610 1-390): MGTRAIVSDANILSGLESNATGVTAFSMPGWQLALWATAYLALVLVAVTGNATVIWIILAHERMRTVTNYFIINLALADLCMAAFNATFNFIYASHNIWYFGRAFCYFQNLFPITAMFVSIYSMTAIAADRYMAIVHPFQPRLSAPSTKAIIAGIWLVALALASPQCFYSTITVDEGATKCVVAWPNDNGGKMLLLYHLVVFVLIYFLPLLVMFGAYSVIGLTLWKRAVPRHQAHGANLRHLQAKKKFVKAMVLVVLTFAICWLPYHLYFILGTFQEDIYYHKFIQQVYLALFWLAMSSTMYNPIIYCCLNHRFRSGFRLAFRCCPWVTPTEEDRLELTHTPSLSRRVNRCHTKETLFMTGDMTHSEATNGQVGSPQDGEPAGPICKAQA
Procedure: The x-axis represents time in seconds and the y-axis represents fluorescence.
In the presence of 10 μM of 805, an acceleration of the dissociation is observed characterized by a modification of the amplitudes of the rapid (88%) and slow (12%) dissociation stages.

receptor EGFP-NK2R [7] = target: T4, receptor EGFP-NK2R; test: Reversion of the binding of NKA-Bo to EGFP-NK2R by fluorescence energy transfer; design: % al (max): maximum value observed for the increase in amplitude of the rapid dissociation rate; ns = n; other: 20 nM of NK; % al (at 10 μM); other: compou; fused on or other part: EGFP fused to the receptor as FRET donor
Source text: as §2

receptor EGFP-NK2R [8] = target: T2, receptor EGFP-NK2R; test: Calcium response caused by NKA 4-10 TR7 in HEK 293 cells expressing EGFP-NK2R (indo-1); type: cell-based; conditions: 805 20 μM; NKA 4-10 TR7 106, 50.3, 26.5 and 10.6 nM
Procedure: The cells are put into suspension at a rate of 500,000 cells/ml in Hepes buffer and arranged in a spectrofluorimeter cuvette. The excitation wavelength is fixed at 355 nm and the emission is recorded at […].

[9] = tested on: cells not expressing the EGFP-NK2R receptor; test: Calcium response on cells not expressing the receptor; type: cell-based; design: key: ns: not significant; ?: uniterpretable

T1 sequence (P25103 whole entry): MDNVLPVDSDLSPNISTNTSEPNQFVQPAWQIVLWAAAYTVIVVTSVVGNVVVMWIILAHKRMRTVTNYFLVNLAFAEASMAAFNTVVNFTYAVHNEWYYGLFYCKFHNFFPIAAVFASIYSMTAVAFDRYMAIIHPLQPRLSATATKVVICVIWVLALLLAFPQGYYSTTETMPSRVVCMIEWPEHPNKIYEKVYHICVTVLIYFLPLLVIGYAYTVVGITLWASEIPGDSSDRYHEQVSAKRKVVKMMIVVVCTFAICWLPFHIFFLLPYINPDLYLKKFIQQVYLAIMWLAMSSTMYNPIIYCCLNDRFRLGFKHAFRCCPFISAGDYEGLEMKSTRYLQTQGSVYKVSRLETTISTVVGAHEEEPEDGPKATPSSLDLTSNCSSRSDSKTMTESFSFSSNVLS

## N#CCN(Cc1ccccc1)Cc1ccc2ccccc2c1 [compound 805, [benzyl(2-naphthylmethyl)amino]acetonitrile]
[1]
  effect on the calcium response caused by substance P: increases the amplitude of the response
Receptor EGFP-NK2R [2]; [805]=10 μM
  Rmax, maximum cAMP response to NKA relative to control: 0.7
Receptor EGFP-NK2R [2]; [805]=50 μM
  Rmax, maximum cAMP response to NKA relative to control: 0.3
Receptor EGFP-NK2R [3]
  inhibition at 50 µM: 9%
[4]
  effect on the calcium response caused by neurokinin A: increases the amplitude of the response
Receptor EGFP-NK2R [5]; 805 10 μM
  time necessary to return to 50% of the maximum calcium response: 105 s
Receptor EGFP-NK2R [5]; 805 50 μM with 1, 5 and 1000 nM NKA
  effect on the calcium response caused by NKA: increases the duration of the calcium response
Receptor EGFP-NK2R [5]; 805 50 μM
  time necessary to return to 50% of the maximum calcium response: 115 s
Receptor EGFP-NK2R [6]; 10 μM of 805, 10° C., 42% without 805
  amplitude of the slow dissociation of NKA4-10 TR7: 12%
Receptor EGFP-NK2R [6]; 805 at 100 μM, approximately 40% in the absence of 805
  amplitude of the rapid dissociation of NKA4-10 TR7: up to 90%
Receptor EGFP-NK2R [6]; read-out: concentration which causes a 50% increase in the amplitude of the rapid dissociation of NKA4-10 TR7 (apparent affinity), 10° C.
  EC50: ~20 µM
Receptor EGFP-NK2R [7]; compound 10 μM
  % bond reversion (at 10 μM): 1 (10 μM) %
Receptor EGFP-NK2R [7]; read-out: IC50 (μM): concentration of compound for which a 50% reduction is observed in the binding of NKA-Bo, 20 nM of NKA-Bo, EGFP-NK2R receptor
  IC50: > 500 µM
Receptor EGFP-NK2R [8]
  effect on the calcium response caused by NKA 4-10 TR7: increases the amplitude of the response
[9]; Table 1
  Ca Rep.: ability to evoke a calcium response on cells not expressing the EGFP-NK2R receptor: ns
[9]; Table 2
  Ca Rep.: ns
